Assay results from patent publication US20110251379A1, “COMPOUNDS USEFUL FOR TREATING NEURODEGENERATIVE DISORDERS” (Satori Pharmaceuticals, Inc., priority 2010, published 2011).
Like-named read-outs stand apart in the source and are kept apart here.

Legend:
Format in all cases: cell-based
Aβ-38 = assay: MSD Human (6E10) Ab 3-PLEX elisa, conditioned media of 2B7 cells: Aβ-38; details: Homo sapiens, Aβ-38 (superscript a)
Method: (§1) Assays were conducted to determine the ability of a Compound of Formula I to modulate […], and Aβ-38.
(§2) Plates with capture antibodies were blocked for 1-2 hours at room temperature with 150 μL of the manufactures blocking reagent.
(§3) Conditioned Media: • Cultured 2B7 cells in 96 well plate with 250 uL of media per well until confluent; • Prepared serial dilutions of compounds in DMSO at 100× the final desired concentration; • Washed wells with 2B7 cells 1× with 250 uL of media; • Diluted DMSO stocks 1:100 into media: • Added 250 μL of media containing compounds (1% DMSO) to wells with 2B7 cells for 5 hours at 37° C.
(§4) Elisa Sample Prep: • Diluted conditioned media: 1 part media with 1% DMSO and 1 part blocking buffer; • 150 μL of the 250 μL of conditioned media were used.
(§5) […] CURVE SAMPLE PREP: Prepared per manufacturer's protocol (see above) • Seven point standard curve samples were prepared that contained Aβ-42, Aβ-40, and Aβ-38. The highest concentration of Aβ-42 and Aβ-3-38 was 3,000 pg/mL and the highest concentration of Aβ-40 was 10,000 pg/mL. Subsequent serial dilutions were 1:3 and the final composition of each sample was 1 part blocking buffer and 1 part cell medium containing 1% DMSO.
(§6) Overnight Sample Incubation: • Blocked plates are washed 5× with MSD wash buffer with a plate washer • 25 uL of detection antibody and blocker G reagent in MSD blocking solution is added • 25 uL of samples (1 part conditioned media containing 1% DMSO and 1 part MSD blocking buffer) are then added. • plates are incubated overnight at 4 degrees C. or 2 hours at room temp
(§7) Final Wash and Readout: • Wash wells 5× with MSD wash buffer • Added 150 μL 2×MSD read buffer • Read with MSD imager.
(§8) A-Beta peptide levels for each peptide are calculated from the standard curve using the MSD software provided with the MSD 2400 Imager. Percent vehicle values for each compound dosage were then calculated and fit to a 4 parameter curve generating IC50 values.

Aβ-40 = assay: MSD Human (6E10) Ab 3-PLEX elisa, conditioned media of 2B7 cells: Aβ-40; details: Homo sapiens; for IC50: Aβ-40 (superscript b); for inhibition at 20 µM: Aβ-40, 20 μM
Method: as §1, §2, §3, §4, §5, §6, §7, §8

Aβ-42 = assay: MSD Human (6E10) Ab 3-PLEX elisa, conditioned media of 2B7 cells: Aβ-42; details: Homo sapiens; for IC50: Aβ-42 (superscript c); for inhibition at 20 µM: Aβ-42, 20 μM
Method: as §1, §2, §3, §4, §5, §6, §7, §8

| SMILES | IC50 (Aβ-38; read-out: 50% reduction value) [µM] | IC50 (Aβ-38; read-out: IC50 range) [µM] | IC50 (Aβ-40; read-out: 50% reduction value) [µM] | IC50 (Aβ-40; read-out: IC50 range) [µM] | IC50 (Aβ-42; read-out: 50% reduction value) [µM] | IC50 (Aβ-42; read-out: IC50 range) [µM] | inhibition at 20 µM (Aβ-42) [%] | inhibition at 20 µM (Aβ-40) [%] |
| --- | --- | --- | --- | --- | --- | --- | --- | --- |
| CO[C@H](C(C)C)C1C[C@@H](C)[C@H]2C(O1)[C@H](O)[C@@]1(C)C3CC[C@H]4C(C)(C)[C@@H](O[C@H]5CNCCO5)CC[C@@]45C[C@@]35CC[C@]21C (stereo partly drawn) | 1 to 10 | 1 to 10 | 1 to 10 | 1 to 10 | 1 to 10 | 1 to 10 | – | – |
| CO[C@H](C(C)C)C1C[C@@H](C)[C@H]2C(O1)[C@H](O)[C@@]1(C)C3CC[C@H]4C(C)(C)[C@@H](O)CC[C@@]45C[C@@]35CC[C@]21C (stereo partly drawn) | 1 to 10 | – | > 10 | – | – | – | 25 to 75 | – |
| CNC(=O)O[C@H](C(C)C)C1C[C@@H](C)[C@H]2C(O1)[C@H](O)[C@@]1(C)C3CC[C@H]4C(C)(C)[C@@H](O[C@H]5CNCCO5)CC[C@@]45C[C@@]35CC[C@]21C (stereo partly drawn) | < 1 | – | 1 to 10 | > 10 | < 1 | < 1 | 25 to 75 | 25 to 75 |
| C[C@@H]1CC([C@H](OC(=O)C2CCOCC2)C(C)(C)O)OC2[C@H]1[C@@]1(C)CC[C@@]34C[C@@]35CC[C@H](O)C(C)(C)[C@@H]5CCC4[C@]1(C)[C@H]2O (stereo partly drawn) | 1 to 10 | – | – | – | – | – | 25 to 75 | 25 to 75 |
| C[C@@H]1C[C@H]([C@H](OC(N)=O)C(C)(C)O)O[C@H]2[C@H]1[C@@]1(C)CC[C@@]34C[C@@]35CC[C@H](O[C@H]3CN(C6COC6)CCO3)C(C)(C)[C@@H]5CCC4[C@]1(C)[C@H]2O (stereo partly drawn) | 1 to 10 | – | > 10 | – | – | – | 25 to 75 | – |
| CNC(=O)OC(C)(C)[C@@H](O)[C@H]1C[C@@H](C)[C@H]2[C@H](O1)[C@H](O)[C@@]1(C)C3CC[C@H]4C(C)(C)[C@@H](O)CC[C@@]45C[C@@]35CC[C@]21C (stereo partly drawn) | 1 to 10 | – | > 10 | – | – | – | 25 to 75 | – |
| C[C@@H]1CC(COC(=O)C(C)(C)C)OC2[C@H]1[C@@]1(C)CC[C@@]34C[C@@]35CC[C@H](O[C@H]3CN(C6COC6)CCO3)C(C)(C)[C@@H]5CCC4[C@]1(C)[C@H]2O (stereo partly drawn) | 1 to 10 | – | > 10 | – | > 10 | – | – | – |
| C[C@@H]1CC(COC(=O)C2CC2)OC2[C@H]1[C@@]1(C)CC[C@@]34C[C@@]35CC[C@H](O[C@H]3CN(C6COC6)CCO3)C(C)(C)[C@@H]5CCC4[C@]1(C)[C@H]2O (stereo partly drawn) | 1 to 10 | – | > 10 | – | – | – | < 25 | – |
| CC(C)CC(=O)OCC1C[C@@H](C)[C@H]2C(O1)[C@H](O)[C@@]1(C)C3CC[C@H]4C(C)(C)[C@@H](O[C@H]5CN(C6COC6)CCO5)CC[C@@]45C[C@@]35CC[C@]21C (stereo partly drawn) | 1 to 10 | – | – | – | – | – | 25 to 75 | 25 to 75 |
| CC(C)[C@@H](OC(N)=O)C1C[C@@H](C)[C@H]2C(O1)[C@H](O)[C@@]1(C)[C@@H]3CC[C@H]4C(C)(C)C(O[C@H]5CNCCO5)CC[C@@]45C[C@@]35CC[C@]21C (stereo partly drawn) | < 1 | – | 1 to 10 | 1 to 10 | < 1 | < 1 | – | – |
| CCO[C@H](C(C)C)C1C[C@@H](C)[C@H]2C(O1)[C@H](O)[C@@]1(C)[C@@H]3CC[C@H]4C(C)(C)C(O[C@H]5CNCCO5)CC[C@@]45C[C@@]35CC[C@]21C (stereo partly drawn) | 1 to 10 | – | 1 to 10 | 1 to 10 | 1 to 10 | 1 to 10 | – | – |
| CCO[C@H](C(C)C)C1C[C@@H](C)[C@H]2C(O1)[C@H](O)[C@@]1(C)[C@@H]3CC[C@H]4C(C)(C)C(O)CC[C@@]45C[C@@]35CC[C@]21C (stereo partly drawn) | 1 to 10 | – | 1 to 10 | – | 1 to 10 | – | – | – |
| CC(C)[C@@H](OC(=O)C1CCC1)C1C[C@@H](C)[C@H]2C(O1)[C@H](O)[C@@]1(C)[C@@H]3CC[C@H]4C(C)(C)C(O)CC[C@@]45C[C@@]35CC[C@]21C (stereo partly drawn) | < 1 | 1 to 10 | 1 to 10 | – | < 1 | – | – | – |
| CC(C)CC(=O)O[C@@H](C1C[C@@H](C)[C@H]2C(O1)[C@H](O)[C@@]1(C)[C@@H]3CC[C@H]4C(C)(C)C(O)CC[C@@]45C[C@@]35CC[C@]21C)C(C)(C)O (stereo partly drawn) | < 1 | < 1 | 1 to 10 | – | < 1 | – | – | – |
| CC(=O)OC[C@@]1(C)C[C@@H](C)[C@H]2C(O1)[C@H](O)[C@@]1(C)C3CC[C@H]4C(C)(C)C(O)CC[C@@]45C[C@@]35CC[C@]21C (stereo partly drawn) | 1 to 10 | – | 1 to 10 | – | > 10 | – | – | – |
| CC(=O)O[C@@H](C1C[C@@H](C)C2C(O1)[C@H](O)[C@@]1(C)[C@@H]3CC[C@H]4C(C)(C)C(O)CC[C@@]45C[C@@]35CC[C@]21C)C(C)(C)C (stereo partly drawn) | 1 to 10 | – | – | – | < 1 | – | – | 25 to 75 |
| CC(C)[C@@H](OC(=O)N1CCC1)C1C[C@@H](C)[C@H]2C(O1)[C@H](O)[C@@]1(C)C3CC[C@H]4C(C)(C)C(OC(=O)N5CC(C(=O)O)C5)CC[C@@]45C[C@@]35CC[C@]21C (stereo partly drawn) | < 1 | – | 1 to 10 | – | < 1 | – | – | – |
| CC(C)[C@@H](OC(=O)N1CCC1)C1C[C@@H](C)[C@H]2C(O1)[C@H](O)[C@@]1(C)C3CC[C@H]4C(C)(C)C(OC(=O)NC5CNC5)CC[C@@]45C[C@@]35CC[C@]21C (stereo partly drawn) | < 1 | < 1 | 1 to 10 | 1 to 10 | < 1 | < 1 | – | – |
| CCO[C@@H]([C@H]1C[C@@H](C)[C@H]2[C@H](O1)[C@H](O)[C@@]1(C)[C@@H]3CC[C@H]4C(C)(C)[C@@H](OC(=O)N5CC(C(=O)O)C5)CC[C@@]45C[C@@]35CC[C@]21C)C(C)(C)O | < 1 | < 1 | 1 to 10 | 1 to 10 | < 1 | < 1 | – | – |
| CC(C)O[C@@H](C1C[C@@H](C)[C@H]2C(O1)[C@H](O)[C@@]1(C)C3CC[C@H]4C(C)(C)C(O[C@H]5CN(C6COC6)CCO5)CC[C@@]45C[C@@]35CC[C@]21C)C(C)(C)O (stereo partly drawn) | < 1 | < 1 | 1 to 10 | 1 to 10 | < 1 | < 1 | – | – |
| CCO[C@@H](C1C[C@@H](C)[C@H]2C(O1)[C@H](O)[C@@]1(C)C3CC[C@H]4C(C)(C)C(O[C@H]5CN(C6CCOCC6)CCO5)CC[C@@]45C[C@@]35CC[C@]21C)C(C)(C)O (stereo partly drawn) | < 1 | < 1 | 1 to 10 | 1 to 10 | < 1 | < 1 | – | – |
| CCO[C@@H](C1C[C@@H](C)[C@H]2C(O1)[C@H](O)[C@@]1(C)C3CC[C@H]4C(C)(C)C(O[C@H]5CN(C6CCOC6)CCO5)CC[C@@]45C[C@@]35CC[C@]21C)C(C)(C)O (stereo partly drawn) | < 1 | – | 1 to 10 | – | < 1 | < 1 | – | – |
| CCO[C@@H](C1C[C@@H](C)[C@H]2C(O1)[C@H](O)[C@@]1(C)C3CC[C@H]4C(C)(C)C(OC(N)=O)CC[C@@]45C[C@@]35CC[C@]21C)C(C)(C)O (stereo partly drawn) | < 1 | – | 1 to 10 | – | < 1 | < 1 | – | – |
| CCO[C@@H](C1C[C@@H](C)[C@H]2C(O1)[C@H](O)[C@@]1(C)C3CC[C@H]4C(C)(C)C(OC(=O)NC)CC[C@@]45C[C@@]35CC[C@]21C)C(C)(C)O (stereo partly drawn) | < 1 | – | – | – | < 1 | – | – | > 75 |
